One may read the IC50 as the concentration at which inhibition is half-maximal. By IC90 is commonly meant the concentration needed for an effect of 90%.

These results are taken from ChEMBL document CHEMBL4483862, “Open-source discovery of chemical leads for next-generation chemoprotective antimalarials” (2018).

This test concerns Plasmodium berghei. The experiment in a line: Luciferase/luciferin-expressing antifolate-resistant parasites were used to infect a culture of HepG2 cells that were pre-incubated with compounds. Infected hepatocytes emit light due to the luciferase reaction. Assay results are presented as the percent inhibition of light emission compared to control. […]. It is filed as functional. The following applies: sporozoite; for IC50: read-out: LUCIFERASE INFECTION ASSAY - IC50; for IC90: read-out: LUCIFERASE INFECTION ASSAY - IC90.

Turning to `CC(C)c1ccc(Nc2ncc3c(n2)CCN(C(=O)Nc2ccc(F)c(Cl)c2)C3)cc1`, the IC50 was more than 7.5 µM and the IC90 was more than 7.5 µM.

For the molecule `O=C(Nc1ccc(OC(F)(F)F)cc1)N1CCc2nc(NCc3cccc(Oc4ccccc4)c3)ncc2C1`, the half-inhibitory concentration (IC50) was more than 6.16 µM and the IC90 is more than 6.16 µM.

As for `CC(C)c1ccc(NC(=O)N2CCc3nc(NCc4cccc(Oc5ccccc5)c4)ncc3C2)cc1`, the 50% inhibitory concentration (IC50) is more than 6.69 µM and the IC90 was more than 6.69 µM.

For `Cc1cc(-c2cn3c(-c4ccc5ncccc5c4)cnc3cn2)cc(C)c1O`, the 50% inhibitory concentration (IC50) is 8.6 µM and the 90% effect concentration (IC90) is more than 9.01 µM.

Take `COc1ccc(-c2cn3c(-c4cccc(O)c4)cnc3cn2)cn1`: the IC50 is more than 10.4 µM and the IC90 was more than 10.4 µM.

For the molecule `Cn1ccc2cc(-c3cn4c(-c5ccc6ncccc6c5)cnc4cn3)ccc21`, the half-maximal inhibitory concentration (IC50) amounted to 1.36 µM and the IC90 is 3.52 µM.

For `Oc1cccc(-c2cnc3cnc(-c4cccs4)cn23)c1`, the IC50 was more than 11.2 µM and the IC90 was more than 11.2 µM.

With `OCc1ccc(-c2cnc3cnc(-c4ccco4)cn23)cc1`, the IC50 was more than 11.3 µM and the IC90 was more than 11.3 µM.

With `OCc1ccc(-c2cnc3cnc(-c4cccc(F)c4)cn23)cc1`, the 50% inhibitory concentration (IC50) is more than 10.3 µM and the IC90 is more than 10.3 µM.

`COc1ccc(N2CCN(c3nccnc3-c3ccccc3)CC2)cc1OC`: the IC50 is 0.382 µM and the IC90 was 0.978 µM.

For `CN(C)c1cccc(-c2cnc3cnc(-c4ccc(C(=O)NCCO)cc4)cn23)c1`, the IC50 was more than 8.22 µM and the IC90 was more than 8.22 µM.

For `Cn1ccc2cc(-c3cn4c(-c5ccc(C(=O)NC6CC6)cc5)cnc4cn3)ccc21`, the IC50 came out at 2.7 µM and the IC90 is 3.32 µM.

With `COc1cc(-c2cnc3cnc(-c4ccc(C(=O)NCCN(C)C)cc4)cn23)ccc1O`, the IC50 was more than 7.65 µM and the IC90 is more than 7.65 µM.

`Cc1ccc(-c2cnc3ccc(NC4CCOCC4)nn23)cc1`: the IC50 is 3.16 µM and the IC90 is 10.4 µM.

Regarding `O=C(Nc1ccc(OC(F)(F)F)cc1)N1CCc2nc(Nc3cc(Cl)cc(Cl)c3)ncc2C1`, the IC50 was more than 6.62 µM and the IC90 is more than 6.62 µM.

Take `CCCN1CCc2nc(Nc3ccc(Oc4ccccc4)cc3)ncc2C1`: the half-maximal inhibitory concentration (IC50) is more than 9.16 µM and the IC90 is more than 9.16 µM.

For `COc1ccc(-c2cnc3ccc(NCc4ccc5c(c4)OCO5)nn23)cc1`, the IC50 stood at 0.746 µM and the IC90 is 1.36 µM.

Turning to `O=C(NC1CCCC1)c1ccc(-c2cn3c(-c4ccc5ncccc5c4)cnc3cn2)cc1`, the IC50 was more than 7.61 µM and the IC90 is more than 7.61 µM.

Consider `CS(=O)(=O)Nc1cccc(-c2cn3c(-c4cccc(CO)c4)cnc3cn2)c1`, for which the IC50 was more than 8.37 µM and the IC90 is more than 8.37 µM.

Turning to `Cn1ccc2cc(-c3cnc4cnc(-c5ccc(C(=O)NCCO)cc5)cn34)ccc21`, the IC50 worked out at 6.16 µM and the IC90 is 7.65 µM.

`CCNC(=O)N1CCc2nc(Nc3cc(Cl)cc(Cl)c3)ncc2C1`: the half-maximal inhibitory concentration (IC50) was more than 9.01 µM and the IC90 was more than 9.01 µM.

Regarding `c1cncc(-c2cn3c(-c4cccs4)cnc3cn2)c1`, the IC50 is more than 11.9 µM and the 90% effect concentration (IC90) is more than 11.9 µM.

For the molecule `c1cncc(-c2cn3c(-c4ccsc4)cnc3cn2)c1`, the IC50 was more than 11.9 µM and the 90% effect concentration (IC90) was more than 11.9 µM.

For `CC(C)c1ccc(NC(=O)N2Cc3cnc(Nc4ccc(OCCN5CCCC5)cc4)nc3C2)cc1`, the IC50 was more than 6.78 µM and the IC90 was more than 6.78 µM.

As for `c1ccc(Oc2ccccc2-c2cnc3c(NCc4cccs4)nccn23)cc1`, the IC50 amounted to 4.96 µM and the IC90 was more than 8.28 µM.

`CCCN1CCc2nc(NCc3ccc(Oc4ccccc4)cc3)ncc2C1`: the IC50 is more than 8.81 µM and the IC90 was more than 8.81 µM.

As for `OCc1ccc(-c2cnc3cnc(-c4ccc(Cl)cc4)cn23)cc1`, the half-inhibitory concentration (IC50) is more than 9.83 µM and the concentration for an effect of 90% (IC90) was more than 9.83 µM.

Regarding `COc1cc(-c2cccc(Nc3cccc(OC(F)(F)C(F)F)c3)n2)cc(OC)c1OC`, the IC50 is more than 7.29 µM and the IC90 was more than 7.29 µM.

As to `CN(C)c1cccc(-c2cnc3cnc(-c4cnn(Cc5ccccc5)c4)cn23)c1`, the IC50 is more than 8.37 µM and the IC90 was more than 8.37 µM.

As to `O=C(COc1ccccc1)N1CCc2nc(NCc3cccc(Oc4ccccc4)c3)ncc2C1`, the IC50 was more than 7.07 µM and the 90% effect concentration (IC90) is more than 7.07 µM.

With `COc1cc(NC(=O)N2Cc3cnc(Nc4cccc(N(C)C)c4)nc3C2)cc(OC)c1OC`, the IC50 is more than 7.1 µM and the IC90 is more than 7.1 µM.

For the molecule `COc1cc(-c2cnc3cnc(-c4cccc(NC(C)=O)c4)cn23)cc(OC)c1OC`, the IC50 was found to be 3.93 µM and the 90% effect concentration (IC90) was more than 7.89 µM.

Take `c1ccc(CN2CCc3nc(NCc4cccc(Oc5ccccc5)c4)ncc3C2)cc1`: the half-inhibitory concentration (IC50) was more than 7.81 µM and the IC90 was more than 7.81 µM.

Turning to `CCNc1cc(C(=O)Nc2ccccc2)ncn1`, the IC50 came to 0.963 µM and the concentration for an effect of 90% (IC90) was more than 13.6 µM.

For `c1ccc(Cn2cc(-c3cn4c(-c5ccc6ncccc6c5)cnc4cn3)cn2)cc1`, the IC50 is more than 8.2 µM and the IC90 is more than 8.2 µM.

With `CN1CCN(c2ccc(-c3cn4c(-c5ccc(F)c(Cl)c5)cnc4cn3)cn2)CC1`, the IC50 is more than 7.8 µM and the IC90 is more than 7.8 µM.

Consider `Clc1ccc(-c2cnc3ccc(NCc4ccc5c(c4)OCO5)nn23)cc1`, for which the IC50 was more than 8.71 µM and the IC90 was more than 8.71 µM.

For `c1ccc(CN2CCc3nc(NCc4ccc(Oc5ccccc5)cc4)ncc3C2)cc1`, the IC50 is more than 7.81 µM and the IC90 is more than 7.81 µM.

With `O=C(Nc1cccnc1)N1CCc2nc(Nc3cc(Cl)cc(Cl)c3)ncc2C1`, the IC50 is more than 7.95 µM and the 90% effect concentration (IC90) was more than 7.95 µM.

In the case of `CCCN1CCc2nc(NCc3ccc(Cl)c(Cl)c3)ncc2C1`, the IC50 was 5.58 µM and the concentration for an effect of 90% (IC90) is more than 9.39 µM.

Consider `CC(C)(C)c1cccc(Nc2ncc(C(=O)c3ccccc3)[nH]2)c1`, for which the IC50 turned out to be 8.64 µM and the IC90 is more than 10.3 µM.

On to `COc1ccc(-c2cnc3ccc(NCc4ccc(Cl)c(Cl)c4)nn23)cn1`, for which the IC50 came to 4.63 µM and the IC90 is 4.73 µM.

As for `Nc1ccc(-c2cn3c(-c4ccc(CO)cc4)cnc3cn2)cn1`, the IC50 came to 5.8 µM and the IC90 came to 9.13 µM.

Turning to `CCn1c2ccccc2c2cc(Nc3cc(-c4ccc(O)cc4)ncn3)ccc21`, the IC50 is 2.24 µM and the IC90 turned out to be 5.79 µM.

As to `COc1ccccc1-c1cnc2c(Nc3ccc(NS(=O)(=O)c4ccc(C)cc4)cc3)nccn12`, the IC50 amounted to 1.57 µM and the IC90 is more than 6.8 µM.

Regarding `O=C(c1cccc(Cl)c1)c1cnc(Nc2cccc(C(F)(F)F)c2)[nH]1`, the IC50 is 5.49 µM and the IC90 is more than 9.02 µM.

Consider `COc1ccc(CNC(=O)N2CCc3nc(NCc4cccc(Oc5ccccc5)c4)ncc3C2)cc1`, for which the concentration for half-maximal inhibition (IC50) was more than 6.66 µM and the IC90 was more than 6.66 µM.

For the molecule `O=C(Nc1ccc(F)c(Cl)c1)N1CCc2nc(Nc3cc(Cl)cc(Cl)c3)ncc2C1`, the IC50 is more than 7.07 µM and the IC90 is more than 7.07 µM.

Regarding `CN1CCN(C(=O)c2cccc(-c3cnc4cnc(-c5ccc(Cl)cc5)cn34)c2)CC1`, the half-inhibitory concentration (IC50) is more than 7.64 µM and the IC90 was more than 7.64 µM.

For the molecule `COc1ccc(-c2cnc3cnc(-c4cccc(NS(C)(=O)=O)c4)cn23)cn1`, the IC50 worked out at 4.3 µM and the IC90 stood at 7.13 µM.

In the case of `Oc1ccc(-c2cn3c(-c4ccsc4)cnc3cn2)cc1`, the IC50 came out at 10.6 µM and the IC90 was more than 11.2 µM.

As for `OCc1ccc(-c2cnc3cnc(-c4ccccc4CO)cn23)cc1`, the IC50 is more than 9.96 µM and the IC90 is more than 9.96 µM.

As to `CN(C)CCNC(=O)c1ccc(-c2cnc3c(Nc4ccc(Oc5ccccc5)cc4)nccn23)cc1`, the IC50 was more than 6.7 µM and the IC90 is more than 6.7 µM.

Consider `CCCN1CCc2nc(Nc3ccc(OCc4ccccc4)cc3)ncc2C1`, for which the IC50 was more than 8.81 µM and the IC90 was more than 8.81 µM.

As to `CN(C)c1cccc(-c2cnc3cnc(-c4ccccc4)cn23)c1`, the IC50 was more than 10.5 µM and the 90% effect concentration (IC90) is more than 10.5 µM.

On to `OCc1ccccc1-c1cn2c(-c3ccc(Oc4ccccc4)cc3)cnc2cn1`, for which the IC50 was found to be 0.646 µM and the IC90 is 8.14 µM.

Take `CN(C)C(=O)c1ccc(-c2cnc3cnc(-c4ccc(F)c(Cl)c4)cn23)cc1`: the IC50 is more than 8.36 µM and the IC90 is more than 8.36 µM.

Consider `COc1ccc(-c2cnc3cnc(-c4ccc5c(c4)OCO5)cn23)cc1`, for which the IC50 was 1.78 µM and the IC90 turned out to be 4.64 µM.

On to `COc1cc(NC(=O)N2Cc3cnc(Nc4ccc(OCc5ccccc5)cc4)nc3C2)cc(OC)c1OC`, for which the IC50 is more than 6.25 µM and the IC90 was more than 6.25 µM.

As for `c1ccc(NCc2ccc(-c3cn4c(-c5ccncc5)cnc4cn3)cc2)cc1`, the IC50 is more than 8.74 µM and the IC90 was more than 8.74 µM.

Regarding `Clc1ccc(CNc2ncc3c(n2)CCN(Cc2ccccc2)C3)cc1Cl`, the concentration for half-maximal inhibition (IC50) is more than 8.26 µM and the IC90 is more than 8.26 µM.

Take `O=C(NCCc1cccs1)N1CCc2nc(NCc3cccc(Oc4ccccc4)c3)ncc2C1`: the IC50 was more than 6.8 µM and the IC90 was more than 6.8 µM.

With `O=C(Cc1ccccc1)NCC(=O)N1CCc2nc(NCc3cccc(Oc4ccccc4)c3)ncc2C1`, the IC50 was more than 6.5 µM and the IC90 was more than 6.5 µM.

`Cn1ccc2cc(-c3cn4c(-c5ccc(Cl)cc5)cnc4cn3)ccc21`: the IC50 was 0.247 µM and the 90% effect concentration (IC90) came out at 0.448 µM.

`c1ccc(Oc2ccc(-c3cnc4cnc(-c5cccnc5)cn34)cc2)cc1`: the IC50 is 3 µM and the IC90 worked out at 6.96 µM.

`CN(C)c1cccc(Nc2nccn3c(-c4ccc5c(c4)OCO5)cnc23)c1`: the IC50 came out at 0.365 µM and the IC90 stood at 2.84 µM.

As to `Cn1ccc2cc(-c3cn4c(-c5ccncc5)cnc4cn3)ccc21`, the IC50 was more than 10.1 µM and the IC90 was more than 10.1 µM.

`OCc1cccc(-c2cnc3cnc(-c4ccccc4Oc4ccccc4)cn23)c1`: the IC50 was more than 8.39 µM and the IC90 was more than 8.39 µM.
